This note sets out measurements from patent US11655241B2, “Heterocyclic compound and use thereof” (Takeda Pharmaceutical Company Limited, priority 2018, dated 2023).

In this experiment the target is T1, human orexin type 2 receptor (Homo sapiens, UniProt O43614).
T1 construct: expressed in transfected cells
T1 sequence (O43614 1-444): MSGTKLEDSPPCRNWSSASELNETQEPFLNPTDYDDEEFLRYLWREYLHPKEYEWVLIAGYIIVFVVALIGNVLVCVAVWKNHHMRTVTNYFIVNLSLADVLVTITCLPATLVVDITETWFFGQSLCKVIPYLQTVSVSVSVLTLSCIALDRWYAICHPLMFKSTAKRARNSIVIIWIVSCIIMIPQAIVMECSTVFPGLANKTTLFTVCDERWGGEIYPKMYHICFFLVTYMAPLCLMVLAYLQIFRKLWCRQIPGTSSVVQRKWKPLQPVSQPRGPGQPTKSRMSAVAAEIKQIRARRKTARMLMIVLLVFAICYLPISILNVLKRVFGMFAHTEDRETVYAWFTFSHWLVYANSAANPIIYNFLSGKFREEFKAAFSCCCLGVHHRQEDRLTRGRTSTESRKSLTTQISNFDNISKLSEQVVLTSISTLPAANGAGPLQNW
The experiment can be described thus: Measurement of orexin type 2 receptor agonist activity (calcium fluorescence, Fluo-4 AM, FDSS). Format: cell-based. The following applies: compound at 3 μM; CHO cells forcibly expressing human OX2 receptor; DMSO = 0%, orexin A (human) 10 nM = 100%. From the text: Experimental Example 1: Obtainment of Cell Stably Expressing Human Orexin Type 2 Receptor (hOX2R)
To obtain a cell clone stably expressing human orexin type 2 receptor, human orexin type 2 receptor cDNA was inserted into pcDNA3.1(+) plasmid vector (Invitrogen), and a plasmid DNA for expression of human orexin type 2 receptor (pcDNA3.1(+)/hOX2R) was cloned. The plasmid DNA was introduced into CHO-dhfr cell by an electroporation method, and human orexin type 2 receptor expressing clone cells were obtained by limiting dilution method by using G418 drug resistance as a selection marker.
Experimental Example 2: Measurement of Orexin Type 2 Receptor Agonist Activity
CHO cells forcibly expressing human OX2 receptor were seeded in each well of 384 well black transparent bottom plate (BD Falcon) at 7,500 cells/well, and cultured for one day in a 5% CO2 incubator at 37° C. After removal of the medium in the cell plate, assay buffer A containing a calcium indicator (HBSS (Thermo Fisher Scientific), 20 mM HEPES (Thermo Fisher Scientific), 0.1% BSA (Wako Pure Chemical Industries, Ltd. or Sigma-Aldrich), 2.5 μg/mL Fluo-4 AM (DOJINDO Chemical), 0.08% Pluronic F127 (DOJINDO Chemical), 1.25 mM probenecid (DOJINDO Chemical)) was added at 30 μL/well. The plate was stood for 30 min in a 5% CO2 incubator at 37° C., and further stood at room temperature for 30 min. A test compound prepared by diluting with assay buffer B (HBSS, 20 mM HEPES, 0.1% BSA) was added at 10 μL/well, and the fluorescence value was measured by FDSSμCELL (Hamamatsu Photonics K.K.) every one sec for 1 min, and thereafter every two sec for 1 min 40 sec. The activity (%) of the test compound was calculated assuming that variation in the fluorescence value when DMSO was added instead of the test compound was 0%, and variation in the fluorescence value when orexin A (human) (PEPTIDE INSTITUTE, INC.) was added at the final concentration of 10 nM was 100%. The activity of each compound at the concentration of 3 μM was shown below.
As to `COC(=O)N[C@H]1CCN(C(=O)C2CCC2)[C@H]1Cc1cccc(-c2cccc(F)c2)c1` (relative stereo) [Example 1, methyl{cis-1-(cyclobutanecarbonyl)-2-[(3′-fluoro[1,1′-biphenyl]-3-yl)methyl]pyrrolidin-3-yl}carbamate], the “OX2R agonist activity (3 μM, %)” value amounted to 33%.
In the case of `O=C(N[C@H]1CCN(C(=O)C2CCC2)[C@H]1Cc1cccc(-c2cccc(F)c2)c1)C1CCCO1` (relative stereo) [Example 5, N-{cis-1-(cyclobutanecarbonyl)-2-[(3′-fluoro[1,1′-biphenyl]-3-yl)methyl]pyrrolidin-3-yl}oxolane-2-carboxamide] it was 92%; in that of `O=C(CO)N[C@H]1CCN(C(=O)C2CCC2)[C@H]1Cc1cccc(-c2cccc(F)c2)c1` (relative stereo) [Example 6, N-{cis-1-(cyclobutanecarbonyl)-2-[(3′-fluoro[1,1′-biphenyl]-3-yl)methyl]pyrrolidin-3-yl}-2-hydroxyacetamide], 60%; in that of `CC(F)(F)C(=O)N[C@H]1CCN(C(=O)C2CCC2)[C@H]1Cc1cccc(-c2cccc(F)c2)c1` (relative stereo) [Example 8, N-{cis-1-(cyclobutanecarbonyl)-2-[(3′-fluoro [1,1′-biphenyl]-3-yl)methyl]pyrrolidin-3-yl}-2,2-difluoropropanamide], 66%.
Regarding `O=C(C1CCC1)N1CC[C@H](NC(=O)C2(F)CCC2)[C@@H]1Cc1cccc(-c2cccc(F)c2)c1` (relative stereo) [Example 10, N-{cis-1-(cyclobutanecarbonyl)-2-[(3′-fluoro[1,1′-biphenyl]-3-yl)methyl]pyrrolidin-3-yl}-1-fluorocyclobutane-1-carboxamide], the “OX2R agonist activity (3 μM, %)” value worked out at 79%.
In the case of `COC1(C(=O)N[C@H]2CCN(C(=O)C3CCC3)[C@H]2Cc2cccc(-c3cccc(F)c3)c2)CC1` (relative stereo) [Example 11, N-{cis-1-(cyclobutanecarbonyl)-2-[(3′-fluoro[1,1′-biphenyl]-3-yl)methyl]pyrrolidin-3-yl}-1-methoxycyclopropane-1-carboxamide] it was 93%; in that of `O=C(NC1CCN(C(=O)C2CCC2)C1Cc1cccc(-c2cccc(F)c2)c1)[C@@H]1CCCO1` (stereo in doubt) [Example 16, (2S)-N-{cis-1-(cyclobutanecarbonyl)-2-[(3′-fluoro[1,1′-biphenyl]-3-yl)methyl]pyrrolidin-3-yl}oxolane-2-carboxamide], 90%.
In the case of `CN(C)C(=O)C(=O)NC1CCN(C(=O)C2CCC2)C1Cc1cccc(-c2cccc(F)c2)c1` (stereo not drawn) [Example 4, N^~2^~-{cis-1-(cyclobutanecarbonyl)-2-[(3′-fluoro[1,1′-biphenyl]-3-yl)methyl]pyrrolidin-3-yl}-N^~1^~,N^~1^~- dimethylethanediamide] it was 95%; in that of `CN(C)C(=O)C(=O)N[C@H]1CCN(C(=O)N2CCC2)[C@H]1Cc1csc(-c2cccc(F)c2)n1` [Example 19, N^~2^~-[(2S,3S)-1-(azetidine-1-carbonyl)-2-{[2-(3-fluorophenyl)-1,3-thiazol-4-yl]methyl}pyrrolidin-3-yl]-N^~1,N^~1^~- dimethylethanediamide], 89%; in that of `CN(C)C(=O)C(=O)N[C@H]1CCN(C(=O)C2CCC2)[C@H]1Cc1csc(-c2cccc(F)c2)n1` [Example 20, N^~2^~-[(2S,3S)-1-(cyclobutanecarbonyl)-2-{[2-(3-fluorophenyl)-1,3-thiazol-4-yl]methyl}pyrrolidin-3-yl]-N^~1,N^~1^~- dimethylethanediamide], 82%.
In the case of `O=C(N[C@H]1CCN(C(=O)N2CCC2)[C@H]1Cc1cccc(-c2cccc(F)c2)n1)[C@@H]1CCCO1` [Example 21, (2S)-N-[(2S,3S)-1-(azetidine-1-carbonyl)-2-{[6-(3-fluorophenyl)pyridin-2-yl]methyl]pyrrolidin-3-yl]oxolane-2-carboxamide] it was 59%; in that of `O=C(N[C@H]1CCN(C(=O)N2CCC2)[C@H]1Cc1csc(-c2cccc(F)c2)n1)[C@@H]1CCCO1` [Example 23, (2S)-N-[(2S,3S)-1-(azetidine-1-carbonyl)-2-{[2-(3-fluorophenyl)-1,3-thiazol-4-yl]methyl}pyrrolidin-3-yl]oxolane-2-carboxamide], 76%; in that of `O=C(N[C@H]1CCN(C(=O)C2CCC2)[C@H]1Cc1csc(-c2cccc(F)c2)n1)[C@@H]1CCCO1` [Example 24, (2S)-N-[(2S,3S)-1-(cyclobutanecarbonyl)-2-{[2-(3-fluorophenyl)-1,3-thiazol-4-yl]methyl}pyrrolidin-3-yl]oxolane-2-carboxamide], 65%.
As for `COC1(C(=O)N[C@H]2CCN(C(=O)N3CCC3)[C@H]2Cc2cccc(-c3cccc(F)c3)n2)CC1` [Example 25, N-[(2S,3S)-1-(azetidine-1-carbonyl)-2-([6-(3-fluorophenyl)pyridin-2-yl]methyl]pyrrolidin-3-yl]-1-methoxycyclopropane-1-carboxamide], the “OX2R agonist activity (3 μM, %)” value is reported as 54%.
The same measure for `COC1(C(=O)N[C@H]2CCN(C(=O)N3CCC3)[C@H]2Cc2csc(-c3cccc(F)c3)n2)CC1` [Example 26, N-[(2S,3S)-1-(azetidine-1-carbonyl)-2-{[2-(3-fluorophenyl)-1,3-thiazol-4-yl]methyl}pyrrolidin-3-yl]-1-methoxycyclopropane-1-carboxamide]: 67%; for `COC1(C(=O)N[C@H]2CCN(C(=O)C3CCC3)[C@H]2Cc2csc(-c3cccc(F)c3)n2)CC1` [Example 27, N-[(2S,3S)-1-(cyclobutanecarbonyl)-2-{[2-(3-fluorophenyl)-1,3-thiazol-4-yl]methyl}pyrrolidin-3-yl]-1-methoxycyclopropane-1-carboxamide]: 60%.
As for `CN(C)C(=O)C(=O)NC1CCCN(C(=O)C2CCC2)C1Cc1cccc(-c2cccc(F)c2)c1` (stereo not drawn) [Example 29, N^~2^~-{cis-1-(cyclobutanecarbonyl)-2-[(3′-fluoro[1,1′-biphenyl]-3-yl)methyl]piperidin-3-yl}-N^~1^~,N^~1^~- dimethylethanediamide], the “OX2R agonist activity (3 μM, %)” value stood at 80%.
In the case of `CN(C)C(=O)C(=O)N[C@H]1CCN(C(=O)N2CCC2)[C@H]1Cc1cccc(-c2cccc(F)c2)c1` [Example 30, N^~2^~-{(2S,3S)-1-(azetidine-1-carbonyl)-2-[(3′-fluoro[1,1′-biphenyl]-3-yl)methyl]pyrrolidin-3-yl}-N^~1^~,N^~1^~-dimethylethanediamide] it was 101%.
In the case of `O=C(N[C@H]1CCN(C(=O)N2CCC2)[C@H]1Cc1cccc(-c2cccc(F)c2)c1)[C@@H]1CCCO1` [Example 31, (2S)-N-{(2S,3S)-1-(azetidine-1-carbonyl)-2-[(3′-fluoro[1,1′-biphenyl]-3-yl)methyl]pyrrolidin-3-yl}oxolane-2-carboxamide], the “OX2R agonist activity (3 μM, %)” value amounted to 104%.
Consider `CN(C)C(=O)C(=O)N[C@H]1CCN(C(=O)C2CCC2)[C@H]1Cc1cccc(-c2cccc(F)c2)c1` [Example 32, N^~2^~-{(2S,3S)-1-(cyclobutanecarbonyl)-2-[(3′-fluoro[1,1′-biphenyl]-3-yl)methyl]pyrrolidin-3-yl}-N^~1^~,N^~1^~- dimethylethanediamide], for which the “OX2R agonist activity (3 μM, %)” value is reported as 103%.
In the case of `O=C(N[C@H]1CCN(C(=O)C2CCC2)[C@H]1Cc1cccc(-c2cccc(F)c2)c1)[C@@H]1CCCO1` [Example 33, (2S)-N-{(2S,3S)-1-(cyclobutanecarbonyl)-2-[(3′-fluoro[1,1′-biphenyl]-3-yl)methyl]pyrrolidin-3-yl}oxolane-2-carboxamide], the “OX2R agonist activity (3 μM, %)” value is 97%.
The same measure for `CN(C)C(=O)C(=O)N[C@H]1CCN(C(=O)C2(F)CCC2)[C@H]1Cc1cccc(-c2cccc(F)c2)c1` [Example 35, N^~2^~-[(2S,3S)-2-[(3′-fluoro[1,1′-biphenyl]-3-yl)methyl]-1-(1-fluorocyclobutane-1-carbonyl)pyrrolidin-3-yl]-N^~1^~,N^~1^~- dimethylethanediamide]: 75%.
